Results: ChEMBL document CHEMBL2073942, “Localization of organic anion transport protein 2 in the apical region of rat retinal pigment epithelium” (Invest Ophthalmol Vis Sci, 2002)

Target: T1, Solute carrier organic anion transporter family member 1A4 (Rattus norvegicus, UniProt O35913)
T1 sequence (O35913 whole entry): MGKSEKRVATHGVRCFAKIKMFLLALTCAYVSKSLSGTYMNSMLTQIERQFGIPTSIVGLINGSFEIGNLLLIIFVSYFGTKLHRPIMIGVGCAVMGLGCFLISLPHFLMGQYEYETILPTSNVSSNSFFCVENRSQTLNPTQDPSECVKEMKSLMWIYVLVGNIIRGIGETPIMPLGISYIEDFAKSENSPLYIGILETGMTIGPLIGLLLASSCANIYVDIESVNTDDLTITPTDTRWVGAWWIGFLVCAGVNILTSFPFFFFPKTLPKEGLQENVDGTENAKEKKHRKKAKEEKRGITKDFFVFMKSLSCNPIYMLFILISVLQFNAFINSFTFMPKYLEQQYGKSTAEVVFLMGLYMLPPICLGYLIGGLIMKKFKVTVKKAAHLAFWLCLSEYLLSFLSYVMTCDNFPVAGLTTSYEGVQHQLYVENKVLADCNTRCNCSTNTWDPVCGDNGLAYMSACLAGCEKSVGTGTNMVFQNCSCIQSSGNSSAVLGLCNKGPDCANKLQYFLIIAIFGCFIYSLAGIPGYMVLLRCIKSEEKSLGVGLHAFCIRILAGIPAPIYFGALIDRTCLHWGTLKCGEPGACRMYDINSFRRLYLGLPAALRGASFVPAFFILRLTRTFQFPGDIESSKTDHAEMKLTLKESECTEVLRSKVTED
Assay: TP_TRANSPORTER: inhibition of Digoxin uptake in Xenopus laevis oocytes
Format: functional, cell-based, Oocyte

CC1=C(/C=C/C(C)=C/C=C/C(C)=C/c2cc(/C=C/C=C(C)/C=C/C3=C(C)CCCC3(C)C)cc[n+]2CCO)C(C)(C)CCC1
Ki: 37 µM
